Reference: article PMC6358775, “Elucidation of Vasodilation Response and Structure Activity Relationships of N^2,N^4-Disubstituted Quinazoline 2,4-Diamines in a Rat Pulmonary Artery Model” (Molecules, 2019)
≈ marks a conversion by molar mass, not a printed value. Counter-ions that a name gives are not always drawn. Like-named read-outs stand apart in the source and are kept apart here. Blank lines part the entries; values can stand above or below the molecule they belong to.

Legend:
α1 adrenergic receptor = α1 adrenergic receptor antagonist; ChEMBL substructure search; cited from earlier work
Glucose Transporter = tested on: Glucose Transporter; design: method as in earlier work; conditions: ChEMBL substructure search; cited from earlier work
DHFR = conditions: ChEMBL substructure search; cited from earlier work
[1] = tested on: endothelium-intact rat pulmonary arterial rings; assay: Vasorelaxation of PE pre-contracted endothelium-intact (E+) pulmonary arterial rings, organ bath; conditions: Rattus norvegicus
[2] = tested on: endothelium-denuded rat pulmonary arterial rings; assay: Vasorelaxation of PE pre-contracted endothelium-denuded (E−) pulmonary arterial rings, organ bath
physchem = conditions: for solubility thermodynamic at 6 h: pH 7.4, aqueous buffer, thermodynamic from solid
Experimental: The solubility of the compounds under investigation here were assessed in phosphate buffer at pH 7.4 using the equilibrium shake-flask method.
An equilibrium shake-flask technique was used to determine the solubility of samples in PBS at pH 7.4. Approximately 1 mg of sample was placed in a 10 mL glass screw top vial and dissolved in 1 mL of 0.02 M PBS at pH 7.4. The solution was sonicated for 1 h, followed by shaking for 6 h (IKA HS 260). The saturated solution was then filtered using a nylon syringe filter. A standard solution of each sample was prepared by dissolving a weighed amount of the sample in 1 mL of DMSO. The concentration of sample dissolved in the PBS solution was determined by comparing the peak area of the PBS and DMSO standard using an Agilent 1100 series HPLC with a Sunshell C8 column (Chromanik Technologies Inc., Osaka, Japan). A 100 µL injection of the aqueous sample and 5 µL of DMSO solution (pre-diluted 100 fold using DMSO) were used.

A549 cells = assay: MTT cytotoxicity assay in A549 cells; assay type: cell-based; conditions: Homo sapiens
Experimental: A 3-[4,5-dimehyl-2-thiazolyl]-2,5-diphenyl-2H-tetrazoliumbromide (MTT) assay was utilized to assess the concentration-response curves for quinazoline analogues as previously reported. A549 cells (ATCC CCL-185, human alveolar basal epithelial cell line) were used to account for the general cytotoxicity of compounds. Cells were cultured in DMEM medium containing fetal bovine serum (FBS; 10%), penicillin (10 U/mL), and streptomycin (100 U/mL). The temperature was maintained at 37 °C with 5% CO2. Cells were seeded for 16–18 h in DMEM and incubated for 72 h with the test compounds. After incubation, MTT (5 mg/mL in normal saline) was added with DMEM and incubated for 3 h. Careful decantation of the medium and addition of DMSO (50 µL) was done. Absorbance values were recorded at 570 nm after 5 min mechanical shaking of the microplate (Sunrise microplate reader, Tecan).
The activity was presented as the inhibitory concentration required to produce a 50% response (IC50). Prism 6.0 GraphPad Software Inc., (San Diego, CA, USA) was utilized for data fitting. 0.5% DMSO was used as the negative control.

PDE-5 = PDE-5 (Homo sapiens, UniProt O76074); conditions: cited from earlier work
[3] = tested on: Aldehyde dehydrogenase 1A1; design: method as in earlier work; conditions: ChEMBL substructure search; cited from earlier work
[4] = tested on: PE-induced contraction of endothelium-denuded pulmonary arterial rings; assay: Inhibition of phenylephrine (PE)-induced contraction in endothelium-denuded arterial rings; design: species or system rat; conditions: Rattus norvegicus; 10 µM compound, 15 min pre-incubation, PE 0.0001–100 µM, E− rings; n = 3–5; read-out: % PE-Contraction Inhibition (SEM)
Experimental: These experiments were undertaken to assess the pharmacological activity of quinazoline analogues against the structurally related α1 receptor blocker (prazosin). In contrast to previous vasorelaxant experiments, this protocol was developed to determine the inhibitory effect of pre-incubated (15 min) inhibitors (10 µM) on the concentration-dependent vasoconstriction induced by cumulative addition of PE (0.0001–100 µM) in endothelium-denuded pulmonary arterial rings. Figure 5 illustrates the real time contractile response shown by the pulmonary arterial ring upon cumulative addition of PE, which evoked a concentration-dependent vasoconstriction, increasing the vessel’s tension.
After anesthesia with thiopental sodium (100 mg/kg, i.p.) (Anesthal®, Jagsonpsal Pharmaceutical Ltd., Haryana, India), rats were euthanized by exsanguination. Lungs were carefully excised, cleaned by the removal of connective tissue, and placed in cold physiological Krebs’ solution composed of (mM): NaCl 122; KCl 5; N-[2-hydroxyethyl] piperazine-N′-[2-ethane-sulfonic acid] (HEPES) 10; KH2PO4 0.5; NaH2PO4 0.5; MgCl2 1; CaCl2 1.8; and glucose 11 adjusted to pH 7.3 using 1 M NaOH. The pulmonary artery was isolated from the lungs and cut into rings approximately 2 mm in length before mounting in the organ bath chambers. Endothelial cells were mechanically removed in some experiments by gentle rubbing of the inner surface with forceps. Pulmonary arterial rings were mounted on intraluminal wires via stainless steel hooks maintaining the resting tension at 1 g and rings were equilibrated for 30 min before obtaining a stable contraction with 10^−5 M phenylephrine (PE). The rings were immersed in 10 mL baths containing physiological Krebs’ solution at 37 °C, which was continuously bubbled with air. Force transducers were connected with intraluminal wires to measure isometric tension via a Mac Lab A/D converter (Chart V5, A.D. Instruments, Castle Hill, NSW, Australia). The functional integrity of the endothelium in the vessels was confirmed by vasorelaxation of ≥70% with sequential addition of 10^−5 M acetylcholine (ACh) to pre-contracted vessels with 10^−5 M PE. Relaxations ≤30% to 10^−5 M ACh in vessels rubbed mechanically were considered successfully endothelium denuded.
The protocol included the assessment of the inhibitory vasoconstriction effect of quinazoline test compounds on endothelium-denuded arterial rings. Briefly, the arterial rings were treated with the α1-receptor blocker (prazosin) or test compound at a concentration of 10 µM for 15 min before construction of the second concentration response curve with cumulative addition of PE (0.0001–100 µM). The same conditions were used to test the effects of the solvent (DMSO 0.2%). The results were obtained in percentages by comparison of the maximum contraction without treatment with the contraction in the presence of the test compound [24, 36, 37].

SMILES: COc1cc2nc(N(C)CCCNC(=O)C3CCCO3)nc(N)c2cc1OC (stereo not drawn) [Alfuzosin]
- Activity (α1 adrenergic receptor): 3 nM

SMILES: COc1cc2nc(N(C)C3CCN(Cc4ccccc4)CC3)nc(N)c2cc1OC [CHEMBL527902]
- Activity (Glucose Transporter): 4.087 µM

SMILES: COc1cccc2c(NCc3ccccc3)nc(NCCCN3CCCCC3C)nc12 (stereo not drawn) [CHEMBL546792]
- Activity (Glucose Transporter): 4.102 µM

SMILES: Cc1ccccc1Nc1nc(Nc2ccccc2)c2ccccc2n1.Cl [CHEMBL582356]
- Activity (Glucose Transporter): 4.496 µM

SMILES: CCOc1ccc2ccccc2c1-c1cc2nc(N)nc(N)c2cc1C [CHEMBL1818128]
- Activity (DHFR): 4.5 nM

- IC50 ([1]; Table S3, endothelium-intact, read-out: E+ Vaso. pIC50 (converted)): 4.47 µM
- EC50 ([1]; endothelium-intact (E+) rings pre-contracted with 10^-5 M PE, cumulative 0.0001–30 µM, mean (SEM), n = 6, read-out: Vaso E+ EC50 µM (SEM)): 4.49 µM
- IC50 ([2]; Table S3, endothelium-denuded, read-out: E- Vaso. pIC50 (converted)): 10.7 µM
- EC50 ([2]; endothelium-denuded (E−) rings pre-contracted with 10^-5 M PE, cumulative 0.0001–30 µM, mean (SEM), n = 6, read-out: Vaso E− EC50 µM (SEM)): 10.7 µM
- Log Sol (physchem; 6 h, pH 7.4): 0.51
- Sol. pH7.4 (µM) (physchem; 6 h, pH 7.4): 3.27 µM
- solubility thermodynamic at 6 h (physchem): 1020 µg/mL (≈ 3.28 mM)
SMILES: Clc1cnc(Nc2ccccc2)nc1NCc1ccccc1 [Compound 14]
- Emax ([1]; maximal relaxation, endothelium-intact rings, up to 30 µM, mean ± SEM): 67.8 ± 5.34%
- Emax ([2]; maximal relaxation, endothelium-denuded rings, up to 30 µM, mean ± SEM): 54.7 ± 6.12%
- IC50 (A549 cells; A549, MTT, 72 h incubation, read-out: A549 IC50, µM (S.D.)): > 100 µM
- IC50 (A549 cells; Table S3, A549, read-out: Cytox. pIC50 (converted)): > 100 µM
- PDE-5 activity (in words) (PDE-5): borderline PDE-5 inactive

SMILES: COc1cc2nc(N3CCN(C(=O)c4ccco4)CC3)nc(N)c2cc1OC [PRAZOSIN HYDROCHLORIDE]
- Activity [3]: 25 µM

- Sol. pH7.4 mg/mL (physchem; 6 h, pH 7.4): 0.55 mg/mL
- Sol. pH7.4 (µM) (physchem; 6 h, pH 7.4): 1.42 µM
- solubility thermodynamic at 6 h (physchem): 550 µg/mL
SMILES: COc1cc2nc(N3CCN(C(=O)c4ccco4)CC3)nc(N)c2cc1OC [Prazosin (PZN), Prazosin HCl, reference compound]
- inhibition at 10 µM [4]: 98%
- Activity (α1 adrenergic receptor): 1 nM

SMILES: COc1cc(NCc2ccc3nc(N)nc(N)c3c2C)cc(OC)c1OC [Trimetrexate]
- Activity (DHFR): 3 nM
